Assay results as given in US20190345138A1, “HETEROCYCLIC AMIDES AS KINASE INHIBITORS” (GlaxoSmithKline Intellectual Property Development Limited, priority 2016, published 2019).
Values joined by “and” are separate entries in the source; they are usually repeats but may differ in a detail not shown here. Equal values may be shown once.

Experiments:
[1] = system: human monocytic leukemia U937 cells; assay: necroptosis assay in U937 cells; format: cell-based; settings: Homo sapiens, U-937, U937 cells; viability by cellular ATP (Cell Titer-Glo); read-out: pIC50, inhibited necrosis in U937 cells (converted)
Experimental: The efficacy of RIP1 inhibitors can be tested […] in vitro using a human monocytic leukemia U937 or mouse L929 fibrosarcoma cells in a necroptosis assay. As determined using the method described in S. He et al., Cell, 137(6):1100-1111 (2009) and International Patent Appln. No. PCT/IB2014/059004, now, International Patent Appln. Pub.
Viability was measured by quantitating cellular levels of ATP using the Cell Titer-Glo kit. All data are means±standard deviation of the mean.

RIP1 kinase = molecular target: T1, RIP1 kinase (Homo sapiens, UniProt Q13546); assay: fluorescent polarization based binding assay; settings: mean of a minimum of 2 experiments
T1 sequence (Q13546 1-375 limits assumed): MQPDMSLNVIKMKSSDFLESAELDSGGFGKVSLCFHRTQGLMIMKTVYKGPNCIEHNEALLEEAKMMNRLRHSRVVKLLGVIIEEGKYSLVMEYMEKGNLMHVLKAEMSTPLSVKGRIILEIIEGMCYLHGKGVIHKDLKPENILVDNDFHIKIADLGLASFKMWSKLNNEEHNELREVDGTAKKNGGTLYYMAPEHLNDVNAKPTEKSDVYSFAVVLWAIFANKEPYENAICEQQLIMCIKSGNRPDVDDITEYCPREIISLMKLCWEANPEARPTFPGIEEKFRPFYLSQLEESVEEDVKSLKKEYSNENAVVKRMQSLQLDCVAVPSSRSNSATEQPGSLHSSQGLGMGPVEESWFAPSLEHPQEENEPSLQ
Text: A fluorescent polarization based binding assay was used to assess the activity of the compounds of this invention, the details of which are disclosed in International Patent Appln. No. PCT/IB2014/059004, now, International Patent Appln. Pub.

Row | Compound | IC50 (RIP1 kinase) | IC50 [1]
1 | O=C(C1CCN(c2nccc(CO)n2)CC1)N1N=CC[C@H]1c1ccccc1 [Example 130, (S)-(1-(4-(hydroxymethyl)pyrimidin-2-yl)piperidin-4-yl)(5-phenyl-4,5-dihydro-1H-pyrazol-1-yl)methanone] | 1 to 31.6 nM | 1 to 100 nM
2 | N#Cc1cccc([C@@H]2CC=NN2C(=O)C2CCN(c3ccc4nccn4n3)CC2)c1 [Example 73, (S)-3-(1-(1-(imidazo[1,2-b]pyridazin-6-yl)piperidine-4-carbonyl)-4,5-dihydro-1H-pyrazol-5-yl)benzonitrile] | 1 to 31.6 nM | 1 to 100 nM
3 | O=C(C1CCN(c2nnc(-c3ccccc3)o2)CC1)N1N=CC[C@H]1c1ccccc1 [Example 57, (S)-(1-(5-phenyl-1,3,4-oxadiazol-2-yl)piperidin-4-yl)(5-phenyl-4,5-dihydro-1H-pyrazol-1-yl)methanone] | 1 to 31.6 nM | 1 to 100 nM
4 | COc1cc(N2CCC(C(=O)N3N=CC[C@H]3c3ccccc3)CC2)nc(N)n1 [Example 34, (S)-(1-(2-amino-6-methoxypyrimidin-4-yl)piperidin-4-yl)(5-phenyl-4,5-dihydro-1H-pyrazol-1-yl)methanone] | 1 to 31.6 nM | 1 to 100 nM
5 | N#Cc1cnc(N2CCC(C(=O)N3N=CC[C@H]3c3ccccc3)CC2)cn1 [Example 40, (S)-5-(4-(5-phenyl-4,5-dihydro-1H-pyrazole-1-carbonyl)piperidin-1-yl)pyrazine-2-carbonitrile] | 1 to 31.6 nM and 1 to 10 nM | 1 to 100 nM
6 | O=C(c1ccnc(N2CCC(C(=O)N3N=CC[C@H]3c3ccccc3)CC2)n1)N1CCNCC1 [Example 146, (S)-(5-phenyl-4,5-dihydro-1H-pyrazol-1-yl)(1-(4-(piperazine-1-carbonyl)pyrimidin-2-yl)piperidin-4-yl)methanone] | 1 to 31.6 nM | 1 to 100 nM
7 | O=C(c1ccnc(N2CCC(C(=O)N3N=CC[C@H]3c3ccccc3)CC2)n1)N1CCOCC1 [Example 145, (S)-(1-(4-(morpholine-4-carbonyl)pyrimidin-2-yl)piperidin-4-yl)(5-phenyl-4,5-dihydro-1H-pyrazol-1-yl)methanone] | 1 to 31.6 nM | 1 to 100 nM
8 | NC(=O)c1cncc(N2CCC(C(=O)N3N=CC[C@H]3c3ccccc3)CC2)n1 [Example 31, (S)-6-(4-(5-phenyl-4,5-dihydro-1H-pyrazole-1-carbonyl)piperidin-1-yl)pyrazine-2-carboxamide] | 1 to 31.6 nM | 1 to 100 nM
9 | N#Cc1cccc([C@@H]2CC=NN2C(=O)C2CCN(c3ncc4cn[nH]c4n3)CC2)c1 [Example 76, (S)-3-(1-(1-(1H-pyrazolo[3,4-d]pyrimidin-6-yl)piperidine-4-carbonyl)-4,5-dihydro-1H-pyrazol-5-yl)benzonitrile] | 1 to 31.6 nM | 1 to 100 nM
10 | Nc1cncc(N2CCC(C(=O)N3N=CC[C@H]3c3ccccc3)CC2)n1 [Example 41, (S)-(1-(6-aminopyrazin-2-yl)piperidin-4-yl)(5-phenyl-4,5-dihydro-1H-pyrazol-1-yl)methanone] | 1 to 31.6 nM | 1 to 100 nM
11 | O=C(NCCO)c1ccnc(N2CCC(C(=O)N3N=CC[C@H]3c3ccccc3)CC2)n1 [Example 126, (S)-N-(2-hydroxyethyl)-2-(4-(5-phenyl-4,5-dihydro-1H-pyrazole-1-carbonyl)piperidin-1-yl)pyrimidine-4-carboxamide] | 1 to 31.6 nM | 1 to 100 nM
12 | N#Cc1nccc(N2CCC(C(=O)N3N=CC[C@H]3c3ccccc3)CC2)n1 [Example 18, (S)-4-(4-(5-phenyl-4,5-dihydro-1H-pyrazole-1-carbonyl)piperidin-1-yl)pyrimidine-2-carbonitrile] | 1 to 31.6 nM and 1 to 10 nM | 1 to 100 nM
13 | O=C1Cc2cnc(N3CCC(C(=O)N4N=CC[C@H]4c4ccccc4)CC3)nc2N1 [Example 24, (S)-2-(4-(5-phenyl-4,5-dihydro-1H-pyrazole-1-carbonyl)piperidin-1-yl)-5H-pyrrolo[2,3-d]pyrimidin-6(7H)-one] | 1 to 31.6 nM | 1 to 100 nM
14 | CN1CCN(C(=O)c2ccnc(N3CCC(C(=O)N4N=CC[C@H]4c4ccccc4)CC3)n2)CC1 [Example 141, (S)-(4-methylpiperazin-1-yl)(2-(4-(5-phenyl-4,5-dihydro-1H-pyrazole-1-carbonyl)piperidin-1-yl)pyrimidin-4-yl)methanone] | 1 to 31.6 nM | 1 to 100 nM

Now from value to compound, other results behind:

Row | IC50 (RIP1 kinase) | Compound | IC50 [1]
15 | 1 to 31.6 nM and 1 to 10 nM | COc1ccnc(N2CCC(C(=O)N3N=CC[C@H]3c3cc(F)cc(F)c3)CC2)n1 [Example 79, (S)-(5-(3,5-difluorophenyl)-4,5-dihydro-1H-pyrazol-1-yl)(1-(4-methoxypyrimidin-2-yl)piperidin-4-yl)methanone] | 1 to 100 nM
16 | 1 to 31.6 nM | O=C(C1CCN(c2ncc(F)c(OCCO)n2)CC1)N1N=CC[C@H]1c1ccccc1 [Example 155, (S)-(1-(5-fluoro-4-(2-hydroxyethoxy)pyrimidin-2-yl)piperidin-4-yl)(5-phenyl-4,5-dihydro-1H-pyrazol-1-yl)methanone] | 1 to 100 nM
17 | 1 to 31.6 nM | O=C(C1CCN(c2ncc3[nH]cnc3n2)CC1)N1N=CC[C@H]1c1cc(F)cc(F)c1 [Example 139, (S)-(1-(7H-purin-2-yl)piperidin-4-yl)(5-(3,5-difluorophenyl)-4,5-dihydro-1H-pyrazol-1-yl)methanone] | 1 to 100 nM
18 | 1 to 31.6 nM | NC(=O)c1nc(N2CCC(C(=O)N3N=CC[C@H]3c3cncc(F)c3)CC2)ncc1Cl [Example 124, (S)-5-chloro-2-(4-(5-(5-fluoropyridin-3-yl)-4,5-dihydro-1H-pyrazole-1-carbonyl)piperidin-1-yl)pyrimidine-4-carboxamide] | 1 to 100 nM
19 | 1 to 31.6 nM and 1 to 10 nM | COc1nccc(N2CCC(C(=O)N3N=CC[C@H]3c3cc(F)cc(F)c3)CC2)n1 [Example 99, (S)-(5-(3,5-difluorophenyl)-4,5-dihydro-1H-pyrazol-1-yl)(1-(2-methoxypyrimidin-4-yl)piperidin-4-yl)methanone] | 1 to 100 nM
20 | 1 to 31.6 nM | O=C(C1CCN(c2cc(C(F)(F)F)ncn2)CC1)N1N=CC[C@H]1c1ccccc1 [Example 51, (S)-(5-phenyl-4,5-dihydro-1H-pyrazol-1-yl)(1-(6-(trifluoromethyl)pyrimidin-4-yl)piperidin-4-yl)methanone] | 1 to 100 nM
21 | 1 to 31.6 nM and 1 to 10 nM | NC(=O)Cc1nc(N2CCC(C(=O)N3N=CC[C@H]3c3ccccc3)CC2)ncc1F [Example 169, (S)-2-(5-fluoro-2-(4-(5-phenyl-4,5-dihydro-1H-pyrazole-1-carbonyl)piperidin-1-yl)pyrimidin-4-yl)acetamide] | 1 to 100 nM
22 | 1 to 31.6 nM and 1 to 10 nM | O=C(C1CCN(c2ccnc(C(F)(F)F)n2)CC1)N1N=CC[C@H]1c1ccccc1 [Example 46, (S)-(5-phenyl-4,5-dihydro-1H-pyrazol-1-yl)(1-(2-(trifluoromethyl)pyrimidin-4-yl)piperidin-4-yl)methanone] | 1 to 100 nM
23 | 1 to 31.6 nM | C#Cc1cc(N2CCC(C(=O)N3N=CC[C@H]3c3cccc(C#N)c3)CC2)ncn1 [Example 158, (S)-3-(1-(1-(6-ethynylpyrimidin-4-yl)piperidine-4-carbonyl)-4,5-dihydro-1H-pyrazol-5-yl)benzonitrile] | 1 to 100 nM
24 | 1 to 31.6 nM | O=C(C1CCN(c2ccn3nccc3n2)CC1)N1N=CC[C@H]1c1cncc(F)c1 [Example 116, (S)-(5-(5-fluoropyridin-3-yl)-4,5-dihydro-1H-pyrazol-1-yl)(1-(pyrazolo[1,5-a]pyrimidin-5-yl)piperidin-4-yl)methanone] | 1 to 100 nM
25 | 1 to 31.6 nM | Nc1nccc(N2CCC(C(=O)N3N=CC[C@H]3c3cc(F)cc(F)c3)CC2)n1 [Example 84, (S)-(1-(2-aminopyrimidin-4-yl)piperidin-4-yl)(5-(3,5-difluorophenyl)-4,5-dihydro-1H-pyrazol-1-yl)methanone] | 1 to 100 nM
26 | 1 to 31.6 nM and 1 to 10 nM | CCOC(=O)c1coc(N2CCC(C(=O)N3N=CC[C@H]3c3cc(F)cc(F)c3)CC2)n1 [Example 106, (S)-ethyl 2-(4-(5-(3,5-difluorophenyl)-4,5-dihydro-1H-pyrazole-1-carbonyl)piperidin-1-yl)oxazole-4-carboxylate] | 1 to 100 nM
27 | 1 to 31.6 nM and 1 to 10 nM | O=C(C1CCN(c2ccc3nccn3n2)CC1)N1N=CC[C@H]1c1cc(F)cc(F)c1 [Example 87, (S)-(5-(3,5-difluorophenyl)-4,5-dihydro-1H-pyrazol-1-yl)(1-(imidazo[1,2-b]pyridazin-6-yl)piperidin-4-yl)methanone] | 1 to 100 nM
28 | 1 to 31.6 nM and 1 to 10 nM | Nc1cc(N2CCC(C(=O)N3N=CC[C@H]3c3cc(F)cc(F)c3)CC2)ncn1 [Example 98, (S)-(1-(6-aminopyrimidin-4-yl)piperidin-4-yl)(5-(3,5-difluorophenyl)-4,5-dihydro-1H-pyrazol-1-yl)methanone] | 1 to 100 nM
29 | 1 to 31.6 nM | O=C(O)c1ncnc(N2CCC(C(=O)N3N=CC[C@H]3c3cc(F)cc(F)c3)CC2)c1F [Example 164, (S)-6-(4-(5-(3,5-difluorophenyl)-4,5-dihydro-1H-pyrazole-1-carbonyl)piperidin-1-yl)-5-fluoropyrimidine-4-carboxylic acid] | 1 to 100 nM
